From ChEMBL document CHEMBL1629647, “Preclinical evaluation of GS-9160, a novel inhibitor of human immunodeficiency virus type 1 integrase” (Antimicrob Agents Chemother, 2009)

Legend:
[1] = system: Human immunodeficiency virus 1; assay: Selectivity ratio of EC50 for antiviral activity against HIV1 harboring G140S and Q148H mutation in catalytic core domain of integrase to EC50 for antiviral activity against wild-type HIV1 3B; format: functional
[2] = system: Human immunodeficiency virus 1; assay: Selectivity ratio of EC50 for antiviral activity against HIV1 harboring E92V mutation in catalytic core domain of integrase to EC50 for antiviral activity against wild-type HIV1 3B; format: functional
[3] = system: Human immunodeficiency virus 1; assay: Selectivity ratio of EC50 for antiviral activity against 3TC-resistant HIV1 selected after 4 passages to EC50 for antiviral activity against wild-type HIV1 3B; format: functional
[4] = in vitro; settings: human, MT4 cells
Description: Selectivity index, ratio of CC50 for human MT4 cells to EC50 for HIV1 3B in presence of 10% FBS

[5] = target: Human immunodeficiency virus type 1 integrase (Human immunodeficiency virus 1, UniProt Q7ZJM1); assay: Inhibition of HIV1 integrase strand transfer activity
Sequence of Human immunodeficiency virus type 1 integrase (Q7ZJM1 whole entry): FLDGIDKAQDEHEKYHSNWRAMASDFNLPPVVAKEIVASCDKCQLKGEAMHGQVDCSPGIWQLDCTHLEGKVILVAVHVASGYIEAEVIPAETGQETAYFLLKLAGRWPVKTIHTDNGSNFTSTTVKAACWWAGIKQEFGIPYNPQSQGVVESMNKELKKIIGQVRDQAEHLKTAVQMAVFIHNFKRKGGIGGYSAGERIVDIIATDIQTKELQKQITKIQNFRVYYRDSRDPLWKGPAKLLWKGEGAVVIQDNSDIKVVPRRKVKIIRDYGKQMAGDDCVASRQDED

[6] = system: Human immunodeficiency virus 1; assay: Selectivity ratio of EC50 for antiviral activity against NRTI-resistant HIV1 harboring RT-6TAMs mutant gene to EC50 for antiviral activity against wild-type HIV1 3B; format: functional
[7] = system: Human immunodeficiency virus 1; assay: Selectivity ratio of EC50 for antiviral activity against GS-9160-resistant HIV1 selected after 5 passages to EC50 for antiviral activity against wild-type HIV1 3B; format: functional
[8] = system: Human immunodeficiency virus 1; assay: Selectivity ratio of EC50 for antiviral activity against HIV1 harboring G140S mutation in catalytic core domain of integrase to EC50 for antiviral activity against wild-type HIV1 3B; format: functional
[9] = system: Human immunodeficiency virus 1; assay: Selectivity ratio of EC50 for antiviral activity against HIV1 harboring L74M mutation in catalytic core domain of integrase to EC50 for antiviral activity against wild-type HIV1 3B; format: functional
[10] = system: Human immunodeficiency virus 1; assay: Selectivity ratio of EC50 for antiviral activity against 3TC-resistant HIV1 selected after 8 passages to EC50 for antiviral activity against wild-type HIV1 3B; format: functional
[11] = system: Human immunodeficiency virus 1; assay: Antiviral activity against HIV1 infected in SupT1 cells assessed as accumulation of late RT products after 12 hrs; format: functional, organism-based; settings: Human immunodeficiency virus 1, SUP-T1, 12 h
[12] = system: Human immunodeficiency virus 1; assay: Selectivity ratio of EC50 for antiviral activity against APV-resistant HIV1 selected after 2 passages to EC50 for antiviral activity against wild-type HIV1 3B; format: functional
[13] = system: Human immunodeficiency virus 1; assay: Selectivity ratio of EC50 for antiviral activity against HIV1 harboring T66I mutation in catalytic core domain of integrase to EC50 for antiviral activity against wild-type HIV1 3B; format: functional
[14] = system: Human immunodeficiency virus 1; assay: Selectivity ratio of EC50 for antiviral activity against HIV1 harboring V151A mutation in catalytic core domain of integrase to EC50 for antiviral activity against wild-type HIV1 3B; format: functional
[15] = system: Human immunodeficiency virus 1; assay: Selectivity ratio of EC50 for antiviral activity against NNRTI-resistant HIV1 harboring RTY181C mutant gene to EC50 for antiviral activity against wild-type HIV1 3B; format: functional
[16] = system: Human immunodeficiency virus 1; assay: Selectivity ratio of EC50 for antiviral activity against HIV1 harboring E92V, G140S and V151A mutation in catalytic core domain of integrase to EC50 for antiviral activity against wild-type HIV1 3B; format: functional
[17] = system: Human immunodeficiency virus 1; assay: Antiviral activity against 0.001 MOI HIV1 BAL infected in human T lymphocyte cells by p24 antigen ELISA in presence of 10% FBS, HSA and alpha1-AGP; format: functional, organism-based; settings: Human immunodeficiency virus 1, BAL
[18] = system: Human immunodeficiency virus 1; assay: Selectivity ratio of EC50 for antiviral activity against PI-resistant HIV1 harboring […], L90M mutant gene to EC50 for antiviral activity against wild-type HIV1 3B; format: functional
[19] = system: Human immunodeficiency virus 1; assay: Antiviral activity against HIV1 3B infected in SupT1 cells assessed as fold increase in viral 2-LTR circles accumulation after […] postinfection by TaqMan real-time PCR; format: functional, SUP-T1
[20] = system: Human immunodeficiency virus 1; assay: Selectivity ratio of EC50 for antiviral activity against NNRTI-resistant HIV1 harboring RTK103N mutant gene to EC50 for antiviral activity against wild-type HIV1 3B; format: functional
[21] = system: Human immunodeficiency virus 1; assay: Selectivity ratio of EC50 for antiviral activity against GS-9160-resistant HIV1 selected after 9 passages to EC50 for antiviral activity against wild-type HIV1 3B; format: functional
[22] = Cytotoxicity against human T lymphocyte cells uninfected by XTT method in presence of 10% FBS
[23] = system: Human immunodeficiency virus 1; assay: Antiviral activity against HIV1 infected in SupT1 cells assessed as accumulation of integrated junction products after 48 hrs by Alu-PCR assay; format: functional, organism-based; settings: Human immunodeficiency virus 1, SUP-T1, 48 h
[24] = system: Human immunodeficiency virus 1; assay: Antiviral activity against 0.02 MOI HIV1 3B infected in human MT-2 cells by two fold dilution method in presence of 100% human serum; format: functional, organism-based; settings: Human immunodeficiency virus 1, 3B, MT2
[25] = system: Human immunodeficiency virus 1; assay: Selectivity ratio of EC50 for antiviral activity against HIV1 harboring Q148K mutation in catalytic core domain of integrase to EC50 for antiviral activity against wild-type HIV1 3B; format: functional
[26] = system: Human immunodeficiency virus 1; assay: Selectivity ratio of EC50 for antiviral activity against HIV1 harboring E138K and Q148K mutation in catalytic core domain of integrase to EC50 for antiviral activity against wild-type HIV1 3B; format: functional
[27] = system: Human immunodeficiency virus 1; assay: Selectivity ratio of EC50 for antiviral activity against HIV1 harboring N155S mutation in catalytic core domain of integrase to EC50 for antiviral activity against wild-type HIV1 3B; format: functional
[28] = in vitro; settings: human, MT2 cells
Description: Selectivity index, ratio of CC50 for human MT2 cells to EC50 for HIV1 3B in presence of 10% FBS

[29] = system: Human immunodeficiency virus 1; assay: Selectivity ratio of EC50 for antiviral activity against EFV-resistant HIV1 selected after 7 passages to EC50 for antiviral activity against wild-type HIV1 3B; format: functional
[30] = system: Human immunodeficiency virus 1; assay: Selectivity ratio of EC50 for antiviral activity against PI-resistant HIV1 harboring […], V82A and L90M mutant gene to EC50 for antiviral activity against wild-type HIV1 3B; format: functional
[31] = system: Human immunodeficiency virus 1; assay: Selectivity ratio of EC50 for antiviral activity against APV-resistant HIV1 selected after 4 passages to EC50 for antiviral activity against wild-type HIV1 3B; format: functional
[32] = system: Human immunodeficiency virus 1; assay: Selectivity ratio of EC50 for antiviral activity against NRTI-resistant HIV1 harboring RTM184V mutant gene to EC50 for antiviral activity against wild-type HIV1 3B; format: functional
[33] = system: Human immunodeficiency virus 1; assay: Selectivity ratio of EC50 for antiviral activity against HIV1 harboring N155H mutation in catalytic core domain of integrase to EC50 for antiviral activity against wild-type HIV1 3B; format: functional
[34] = system: Human immunodeficiency virus 1; assay: Selectivity ratio of EC50 for antiviral activity against HIV1 harboring E92Q mutation in catalytic core domain of integrase to EC50 for antiviral activity against wild-type HIV1 3B; format: functional
[35] = Cytotoxicity against human SupT1 cells infected with HIV1 3B; format: cell-based, SUP-T1; settings: SupT1 cells infected with HIV-1 3B
[36] = Cytotoxicity against human uninfected MT2 cells by three fold dilution method in presence of 10% FBS
[37] = system: Human immunodeficiency virus 1; assay: Selectivity ratio of EC50 for antiviral activity against GS-9160-resistant HIV1 selected after 6 passages to EC50 for antiviral activity against wild-type HIV1 3B; format: functional
[38] = system: Human immunodeficiency virus 1; assay: Selectivity ratio of EC50 for antiviral activity against HIV1 harboring L74M and E92V mutation in catalytic core domain of integrase to EC50 for antiviral activity against wild-type HIV1 3B; format: functional

O=C(NCc1ccc(F)cc1)c1nc(N2CCCCS2(=O)=O)c2cccnc2c1O
Ratio EC50 [1]: 478
Ratio EC50 [2]: 8
Ratio EC50 [3]: 1.3
selectivity ratio [4]: 400
IC50 [5]: 44 nM
Ratio EC50 [6]: 1
Ratio EC50 [7]: 2.7
Ratio EC50 [8]: 2
Ratio EC50 [9]: 1
Ratio EC50 [10]: 0.8
EC50 [11]: > 1000 nM
Ratio EC50 [12]: 2.5
Ratio EC50 [13]: 2
Ratio EC50 [14]: 5
Ratio EC50 [15]: 1
Ratio EC50 [16]: 371
EC50 [17]: 60 nM
Ratio EC50 [18]: 1
fold change (FC) [19]: 3
Ratio EC50 [20]: 1
Ratio EC50 [21]: 49
CC50 [22]: 2100 nM
EC50 [23]: 1.3 nM
EC50 [24]: 96 nM
Ratio EC50 [25]: 35
Ratio EC50 [26]: 314
Ratio EC50 [27]: 21
selectivity ratio [28]: 1500
Ratio EC50 [29]: 1.3
Ratio EC50 [30]: 1
Ratio EC50 [31]: 1.9
Ratio EC50 [32]: 1
Ratio EC50 [33]: 65
Ratio EC50 [34]: 42
CC50 [35]: 1900 nM
CC50 [36]: 3000 nM
Ratio EC50 [37]: 29
Ratio EC50 [38]: 39

CN(c1c2c(c(O)c3ncccc13)C(=O)N(Cc1ccc(F)cc1)C2)S(C)(=O)=O
Ratio EC50 [1]: 1132
Ratio EC50 [2]: 12
Ratio EC50 [3]: 0.5
selectivity ratio [4]: 457
IC50 [5]: 28 nM
Ratio EC50 [6]: 2
Ratio EC50 [7]: 4.3
Ratio EC50 [8]: 2
Ratio EC50 [9]: 1
Ratio EC50 [10]: 0.5
EC50 [11]: > 1000 nM
Ratio EC50 [12]: 1
Ratio EC50 [13]: 1
Ratio EC50 [14]: 5
Ratio EC50 [15]: 1
Ratio EC50 [16]: 583
EC50 [17]: 15 nM
Ratio EC50 [18]: 1
fold change (FC) [19]: 1.9
Ratio EC50 [20]: 1
Ratio EC50 [21]: 51
CC50 [22]: 4000 nM
EC50 [23]: 0.9 nM
EC50 [24]: 19 nM
Ratio EC50 [25]: 23
Ratio EC50 [26]: 250
Ratio EC50 [27]: 12
selectivity ratio [28]: 1900
Ratio EC50 [29]: 0.6
Ratio EC50 [30]: 1
Ratio EC50 [31]: 1.6
Ratio EC50 [32]: 1
Ratio EC50 [33]: 50
Ratio EC50 [34]: 32
CC50 [35]: 600 nM
CC50 [36]: 4000 nM
Ratio EC50 [37]: 26
Ratio EC50 [38]: 67
